Assays:
[1] = molecular target: D(2) dopamine receptor (Homo sapiens) (UniProt P14416); settings: Compound concentration 10.0 uM
[2] = test system: Tyrosine-protein kinase ABL1 (Homo sapiens), P00519 [H396P]; settings: Compound concentration 1000.0 nM
[3] = molecular target: Cyclin-dependent kinase 11A (Homo sapiens) (UniProt Q9UQ88); settings: Compound concentration 1000.0 nM
[4] = molecular target: Serine/threonine-protein kinase 38-like (Homo sapiens) (UniProt Q9Y2H1); settings: Compound concentration 1000.0 nM
[5] = molecular target: Dual specificity protein kinase CLK4 (Homo sapiens) (UniProt Q9HAZ1); settings: Compound concentration 1000.0 nM
[6] = molecular target: cAMP-dependent protein kinase catalytic subunit alpha (Homo sapiens) (UniProt P17612); settings: Compound concentration 1000.0 nM
[7] = molecular target: Dual specificity protein kinase CLK1 (Homo sapiens) (UniProt P49759); settings: Compound concentration 1000.0 nM
[8] = molecular target: Serine/threonine-protein kinase N2 (Homo sapiens) (UniProt Q16513); settings: Compound concentration 1000.0 nM
[9] = molecular target: TGF-beta receptor type-2 (Homo sapiens) (UniProt P37173); settings: Compound concentration 1000.0 nM
[10] = test system: Epidermal growth factor receptor (Homo sapiens), P00533 [UNDEFINED MUTATION]; settings: Compound concentration 1000.0 nM
[11] = molecular target: D(1A) dopamine receptor (Homo sapiens) (UniProt P21728); settings: Compound concentration 10.0 uM
[12] = test system: eIF-2-alpha kinase GCN2 (Homo sapiens), Q9P2K8 [S808G]; settings: Compound concentration 1000.0 nM
[13] = molecular target: Mitogen-activated protein kinase kinase kinase 15 (Homo sapiens) (UniProt Q6ZN16); settings: Compound concentration 1000.0 nM
[14] = molecular target: Protein kinase C delta type (Homo sapiens) (UniProt Q05655); settings: Compound concentration 1000.0 nM
[15] = molecular target: Phosphatidylinositol 3-kinase C2 domain-containing subunit gamma (Homo sapiens) (UniProt O75747); settings: Compound concentration 1000.0 nM
[16] = molecular target: Platelet-derived growth factor receptor alpha (Homo sapiens) (UniProt P16234); settings: Compound concentration 1000.0 nM
[17] = molecular target: Cyclin-dependent kinase 15 (Homo sapiens) (UniProt Q96Q40); settings: Compound concentration 1000.0 nM
[18] = molecular target: Hormonally up-regulated neu tumor-associated kinase (Homo sapiens) (UniProt P57058); settings: Compound concentration 1000.0 nM
[19] = molecular target: Alpha-1B adrenergic receptor (Homo sapiens) (UniProt P35368); settings: Compound concentration 10.0 uM
[20] = molecular target: Epithelial discoidin domain-containing receptor 1 (Homo sapiens) (UniProt Q08345); settings: Compound concentration 1000.0 nM
[21] = molecular target: Maternal embryonic leucine zipper kinase (Homo sapiens) (UniProt Q14680); settings: Compound concentration 1000.0 nM
[22] = molecular target: Histamine H1 receptor (Homo sapiens) (UniProt P35367); settings: Compound concentration 10.0 uM
[23] = molecular target: Activin receptor type-1B (Homo sapiens) (UniProt P36896); settings: Compound concentration 1000.0 nM
[24] = test system: Tyrosine-protein kinase ABL1 (Homo sapiens), P00519 [F317I]; settings: Compound concentration 1000.0 nM
[25] = molecular target: 5'-AMP-activated protein kinase catalytic subunit alpha-2 (Homo sapiens) (UniProt P54646); settings: Compound concentration 1000.0 nM
[26] = molecular target: Serine/threonine-protein kinase SIK2 (Homo sapiens) (UniProt Q9H0K1); settings: Compound concentration 1000.0 nM
[27] = molecular target: Muscarinic acetylcholine receptor M5 (Homo sapiens) (UniProt P08912); settings: Compound concentration 10.0 uM
[28] = molecular target: Mitogen-activated protein kinase 1 (Homo sapiens) (UniProt P28482); settings: Compound concentration 1000.0 nM
[29] = test system: Receptor-type tyrosine-protein kinase FLT3 (Homo sapiens), P36888 [UNDEFINED MUTATION]; settings: Compound concentration 1000.0 nM
[30] = molecular target: Non-receptor tyrosine-protein kinase TNK1 (Homo sapiens) (UniProt Q13470); settings: Compound concentration 1000.0 nM
[31] = molecular target: Myotonin-protein kinase (Homo sapiens) (UniProt Q09013); settings: Compound concentration 1000.0 nM
[32] = molecular target: Receptor tyrosine-protein kinase erbB-2 (Homo sapiens) (UniProt P04626); settings: Compound concentration 1000.0 nM
[33] = molecular target: Mitogen-activated protein kinase kinase kinase 14 (Homo sapiens) (UniProt Q99558); settings: Compound concentration 1000.0 nM
[34] = test system: Epidermal growth factor receptor (Homo sapiens), P00533 [L858R]; settings: Compound concentration 1000.0 nM
[35] = molecular target: Macrophage-stimulating protein receptor (Homo sapiens) (UniProt Q04912); settings: Compound concentration 1000.0 nM
[36] = molecular target: Transient receptor potential cation channel subfamily M member 6 (Homo sapiens) (UniProt Q9BX84); settings: Compound concentration 1000.0 nM
[37] = molecular target: Serine/threonine-protein kinase WNK3 (Homo sapiens) (UniProt Q9BYP7); settings: Compound concentration 1000.0 nM
[38] = molecular target: Tyrosine-protein kinase Fes/Fps (Homo sapiens) (UniProt P07332); settings: Compound concentration 1000.0 nM
[39] = test system: Tyrosine-protein kinase ABL1 (Homo sapiens), P00519 [F317L]; settings: Compound concentration 1000.0 nM
[40] = molecular target: NT-3 growth factor receptor (Homo sapiens) (UniProt Q16288); settings: Compound concentration 1000.0 nM
[41] = molecular target: Dual specificity protein kinase CLK3 (Homo sapiens) (UniProt P49761); settings: Compound concentration 1000.0 nM
[42] = molecular target: NUAK family SNF1-like kinase 1 (Homo sapiens) (UniProt O60285); settings: Compound concentration 1000.0 nM
[43] = molecular target: Mitogen-activated protein kinase kinase kinase kinase 5 (Homo sapiens) (UniProt Q9Y4K4); settings: Compound concentration 1000.0 nM
[44] = molecular target: Calcium/calmodulin-dependent protein kinase type II subunit gamma (Homo sapiens) (UniProt Q13555); settings: Compound concentration 1000.0 nM
[45] = molecular target: Cyclin-dependent kinase 17 (Homo sapiens) (UniProt Q00537); settings: Compound concentration 1000.0 nM

Sequence of NT-3 growth factor receptor (Homo sapiens) (Q16288 32-839 limits assumed): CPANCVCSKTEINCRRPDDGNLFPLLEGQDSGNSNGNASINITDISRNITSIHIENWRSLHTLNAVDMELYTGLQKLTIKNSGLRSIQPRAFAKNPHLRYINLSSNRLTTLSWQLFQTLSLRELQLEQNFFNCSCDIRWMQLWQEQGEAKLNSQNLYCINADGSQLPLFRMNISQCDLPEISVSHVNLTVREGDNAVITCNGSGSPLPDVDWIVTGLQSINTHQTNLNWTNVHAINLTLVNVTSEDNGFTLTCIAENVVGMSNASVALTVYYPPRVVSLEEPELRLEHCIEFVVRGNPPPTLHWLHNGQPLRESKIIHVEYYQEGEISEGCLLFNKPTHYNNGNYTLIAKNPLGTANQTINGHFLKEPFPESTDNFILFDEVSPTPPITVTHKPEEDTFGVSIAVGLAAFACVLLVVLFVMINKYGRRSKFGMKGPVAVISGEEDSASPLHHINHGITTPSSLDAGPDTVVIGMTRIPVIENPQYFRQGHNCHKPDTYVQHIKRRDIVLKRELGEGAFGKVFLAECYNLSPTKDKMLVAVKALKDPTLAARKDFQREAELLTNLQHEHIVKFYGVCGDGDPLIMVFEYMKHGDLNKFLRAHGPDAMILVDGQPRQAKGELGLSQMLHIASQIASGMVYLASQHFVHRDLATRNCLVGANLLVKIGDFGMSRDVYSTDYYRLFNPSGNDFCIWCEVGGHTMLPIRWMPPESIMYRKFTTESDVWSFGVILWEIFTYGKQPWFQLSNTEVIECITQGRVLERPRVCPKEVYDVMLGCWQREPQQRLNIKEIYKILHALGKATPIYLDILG
Sequence of Receptor-type tyrosine-protein kinase FLT3 (Homo sapiens), P36888 [UNDEFINED MUTATION] (P36888 whole entry, looked up, change not shown): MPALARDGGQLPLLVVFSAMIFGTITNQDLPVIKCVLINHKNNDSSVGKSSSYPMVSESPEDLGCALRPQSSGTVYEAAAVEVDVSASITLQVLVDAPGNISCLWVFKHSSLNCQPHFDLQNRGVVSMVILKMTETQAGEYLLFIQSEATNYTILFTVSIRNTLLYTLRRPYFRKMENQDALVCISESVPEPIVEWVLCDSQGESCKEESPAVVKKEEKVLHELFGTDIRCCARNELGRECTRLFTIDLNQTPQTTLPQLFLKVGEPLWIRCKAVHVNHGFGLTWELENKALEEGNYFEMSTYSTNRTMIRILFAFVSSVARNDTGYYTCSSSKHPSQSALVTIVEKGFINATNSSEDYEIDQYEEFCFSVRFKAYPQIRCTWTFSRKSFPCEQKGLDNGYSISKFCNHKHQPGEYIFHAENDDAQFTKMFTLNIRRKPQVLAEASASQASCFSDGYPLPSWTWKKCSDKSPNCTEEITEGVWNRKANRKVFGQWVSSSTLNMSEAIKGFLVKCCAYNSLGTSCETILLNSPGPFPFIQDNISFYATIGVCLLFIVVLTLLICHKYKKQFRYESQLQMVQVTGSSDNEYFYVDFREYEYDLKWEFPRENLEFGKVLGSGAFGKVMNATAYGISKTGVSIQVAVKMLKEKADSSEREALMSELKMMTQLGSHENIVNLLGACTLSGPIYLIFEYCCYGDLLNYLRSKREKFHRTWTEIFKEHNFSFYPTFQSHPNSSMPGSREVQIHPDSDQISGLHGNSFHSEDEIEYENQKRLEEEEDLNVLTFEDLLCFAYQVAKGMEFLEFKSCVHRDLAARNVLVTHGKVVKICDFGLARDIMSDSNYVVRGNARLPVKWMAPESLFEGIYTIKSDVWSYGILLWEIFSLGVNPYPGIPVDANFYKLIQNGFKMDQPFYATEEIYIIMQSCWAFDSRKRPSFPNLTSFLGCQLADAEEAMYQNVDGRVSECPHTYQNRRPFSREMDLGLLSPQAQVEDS
Sequence of Myotonin-protein kinase (Homo sapiens) (Q09013 whole entry): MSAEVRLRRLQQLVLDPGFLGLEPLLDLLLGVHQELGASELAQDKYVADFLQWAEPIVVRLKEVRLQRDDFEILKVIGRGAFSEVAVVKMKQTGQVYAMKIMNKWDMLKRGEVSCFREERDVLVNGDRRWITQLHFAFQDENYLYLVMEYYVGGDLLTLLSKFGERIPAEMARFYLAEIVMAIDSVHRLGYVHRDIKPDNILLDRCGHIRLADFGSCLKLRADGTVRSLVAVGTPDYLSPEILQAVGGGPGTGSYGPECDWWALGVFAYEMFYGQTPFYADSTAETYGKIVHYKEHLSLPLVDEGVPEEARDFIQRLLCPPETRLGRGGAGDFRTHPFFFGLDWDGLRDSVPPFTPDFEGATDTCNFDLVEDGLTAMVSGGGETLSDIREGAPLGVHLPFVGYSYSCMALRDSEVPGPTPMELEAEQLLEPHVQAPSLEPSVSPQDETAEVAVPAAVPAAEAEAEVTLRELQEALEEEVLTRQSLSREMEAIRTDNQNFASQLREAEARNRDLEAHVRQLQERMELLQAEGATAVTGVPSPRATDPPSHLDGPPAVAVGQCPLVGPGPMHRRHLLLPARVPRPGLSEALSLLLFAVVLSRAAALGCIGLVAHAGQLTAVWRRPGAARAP
Sequence of Mitogen-activated protein kinase kinase kinase kinase 5 (Homo sapiens) (Q9Y4K4 whole entry, looked up): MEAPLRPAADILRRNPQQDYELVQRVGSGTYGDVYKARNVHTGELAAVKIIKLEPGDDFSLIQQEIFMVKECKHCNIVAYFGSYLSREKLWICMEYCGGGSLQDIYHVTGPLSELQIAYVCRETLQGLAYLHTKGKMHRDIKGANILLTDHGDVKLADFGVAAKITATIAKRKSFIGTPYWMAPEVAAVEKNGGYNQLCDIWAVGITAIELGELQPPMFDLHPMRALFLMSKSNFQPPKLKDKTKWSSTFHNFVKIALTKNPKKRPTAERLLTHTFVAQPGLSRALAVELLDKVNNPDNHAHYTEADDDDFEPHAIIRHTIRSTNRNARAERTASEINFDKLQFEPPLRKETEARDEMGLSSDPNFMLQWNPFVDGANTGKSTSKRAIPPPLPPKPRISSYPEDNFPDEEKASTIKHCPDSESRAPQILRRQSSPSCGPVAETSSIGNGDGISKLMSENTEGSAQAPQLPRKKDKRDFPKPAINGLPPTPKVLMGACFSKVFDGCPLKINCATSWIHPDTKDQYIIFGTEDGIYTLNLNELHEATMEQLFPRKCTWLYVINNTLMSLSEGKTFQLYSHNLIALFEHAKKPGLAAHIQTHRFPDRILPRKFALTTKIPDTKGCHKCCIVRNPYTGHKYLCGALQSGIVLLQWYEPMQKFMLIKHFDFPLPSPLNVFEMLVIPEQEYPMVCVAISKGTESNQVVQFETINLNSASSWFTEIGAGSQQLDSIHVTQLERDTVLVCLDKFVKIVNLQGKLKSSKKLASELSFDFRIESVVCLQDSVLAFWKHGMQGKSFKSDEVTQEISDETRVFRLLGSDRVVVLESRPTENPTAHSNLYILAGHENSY
Sequence of D(1A) dopamine receptor (Homo sapiens) (P21728 whole entry): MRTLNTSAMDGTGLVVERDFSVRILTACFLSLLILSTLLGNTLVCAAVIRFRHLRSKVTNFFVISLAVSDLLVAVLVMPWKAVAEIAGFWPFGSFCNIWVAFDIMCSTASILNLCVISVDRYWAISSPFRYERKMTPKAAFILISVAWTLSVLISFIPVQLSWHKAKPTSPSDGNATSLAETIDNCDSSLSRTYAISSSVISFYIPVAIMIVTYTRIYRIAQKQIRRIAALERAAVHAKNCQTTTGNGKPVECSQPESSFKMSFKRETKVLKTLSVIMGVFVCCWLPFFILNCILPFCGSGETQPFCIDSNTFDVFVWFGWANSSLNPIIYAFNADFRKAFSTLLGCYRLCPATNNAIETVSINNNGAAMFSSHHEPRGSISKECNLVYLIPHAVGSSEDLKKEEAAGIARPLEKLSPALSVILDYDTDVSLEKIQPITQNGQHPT
Sequence of Alpha-1B adrenergic receptor (Homo sapiens) (P35368 whole entry, the tested form may be a part): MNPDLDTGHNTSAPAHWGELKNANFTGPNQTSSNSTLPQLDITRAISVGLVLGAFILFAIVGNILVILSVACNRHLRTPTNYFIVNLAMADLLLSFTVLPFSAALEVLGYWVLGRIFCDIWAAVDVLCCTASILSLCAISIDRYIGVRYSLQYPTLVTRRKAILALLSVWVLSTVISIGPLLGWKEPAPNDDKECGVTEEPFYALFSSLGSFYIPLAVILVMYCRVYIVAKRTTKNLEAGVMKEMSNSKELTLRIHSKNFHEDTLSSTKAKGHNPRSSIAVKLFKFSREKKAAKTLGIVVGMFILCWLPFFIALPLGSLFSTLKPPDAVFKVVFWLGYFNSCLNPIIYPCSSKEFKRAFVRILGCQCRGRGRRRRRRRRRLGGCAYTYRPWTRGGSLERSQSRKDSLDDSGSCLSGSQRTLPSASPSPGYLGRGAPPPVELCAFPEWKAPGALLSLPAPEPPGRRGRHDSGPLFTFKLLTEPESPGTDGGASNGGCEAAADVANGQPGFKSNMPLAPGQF
Sequence of Mitogen-activated protein kinase 1 (Homo sapiens) (P28482 whole entry): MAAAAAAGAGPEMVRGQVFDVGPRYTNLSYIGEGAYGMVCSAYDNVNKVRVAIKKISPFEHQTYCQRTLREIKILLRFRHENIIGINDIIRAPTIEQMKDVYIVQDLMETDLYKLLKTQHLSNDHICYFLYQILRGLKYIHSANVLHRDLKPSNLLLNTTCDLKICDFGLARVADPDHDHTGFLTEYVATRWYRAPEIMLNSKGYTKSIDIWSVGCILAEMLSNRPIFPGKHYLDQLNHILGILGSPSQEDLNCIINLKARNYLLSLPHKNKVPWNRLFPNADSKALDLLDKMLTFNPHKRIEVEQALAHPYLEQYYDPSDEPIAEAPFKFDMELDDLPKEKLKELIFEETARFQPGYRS
Sequence of Cyclin-dependent kinase 15 (Homo sapiens) (Q96Q40 whole entry): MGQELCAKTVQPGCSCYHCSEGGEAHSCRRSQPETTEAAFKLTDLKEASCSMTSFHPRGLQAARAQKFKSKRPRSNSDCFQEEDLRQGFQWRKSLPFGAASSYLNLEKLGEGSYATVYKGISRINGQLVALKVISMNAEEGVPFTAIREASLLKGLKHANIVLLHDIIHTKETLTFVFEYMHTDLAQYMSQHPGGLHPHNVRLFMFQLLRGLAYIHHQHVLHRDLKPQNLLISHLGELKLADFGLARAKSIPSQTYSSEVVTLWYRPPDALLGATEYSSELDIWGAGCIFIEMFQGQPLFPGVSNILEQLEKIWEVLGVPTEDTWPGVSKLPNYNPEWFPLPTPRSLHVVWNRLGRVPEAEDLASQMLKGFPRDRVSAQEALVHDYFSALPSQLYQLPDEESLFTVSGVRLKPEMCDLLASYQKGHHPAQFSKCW

`O=C(O)[C@@H]1[C@@H](Cn2nnc3ccccc3c2=O)CC[C@H]1C(=O)c1ccc(OCCC2CCOCC2)cc1` [BAY-694] was tested, and the inhibition [1] was -5.06%, the residual activity [2] was 97% and the residual activity [3] was 91%. It also gave a residual activity [4] of 100%, a residual activity [5] of 100% and a residual activity [6] of 90%. For the same compound, the residual activity [7] was 98%, the residual activity [8] was 100% and the residual activity [9] was 100%. For the same compound, the residual activity [10] was 53%, the inhibition [11] was 4.76% and the residual activity [12] was 100%. The residual activity [13] was 54%, the residual activity [14] was 100% and the residual activity [15] was 95%. For the same compound, the residual activity [16] was 100%, the residual activity [17] was 100% and the residual activity [18] was 100%. The inhibition [19] was 6.29%, the residual activity [20] was 100% and the residual activity [21] was 85%. The inhibition [22] was 1.6%, the residual activity [23] was 100% and the residual activity [24] was 100%. The residual activity [25] was 100%, the residual activity [26] was 91% and the inhibition [27] was 1.82%. It also gave a residual activity [28] of 93%, a residual activity [29] of 100% and a residual activity [30] of 100%. It also gave a residual activity [31] of 100%, a residual activity [32] of 100% and a residual activity [33] of 100%. For the same compound, the residual activity [34] was 100%, the residual activity [35] was 91% and the residual activity [36] was 96%. For the same compound, the residual activity [37] was 100%, the residual activity [38] was 100% and the residual activity [39] was 92%. It also gave a residual activity [40] of 86%, a residual activity [41] of 91% and a residual activity [42] of 84%. The residual activity [43] was 100%, the residual activity [44] was 100% and the residual activity [45] was 88%.

With `O=C(O)[C@H]1[C@H](Cn2nnc3ccccc3c2=O)CC[C@@H]1C(=O)c1ccc(OCCC2CCOCC2)cc1` [BAY-7598] the inhibition [1] was 30.3%, the residual activity [2] was 94% and the residual activity [3] was 92%. The residual activity [4] was 96%, the residual activity [5] was 100% and the residual activity [6] was 97%. It also gave a residual activity [7] of 98%, a residual activity [8] of 76% and a residual activity [9] of 100%. For the same compound, the residual activity [10] was 40%, the inhibition [11] was 1.16% and the residual activity [12] was 55%. It also gave a residual activity [13] of 64%, a residual activity [14] of 100% and a residual activity [15] of 99%. For the same compound, the residual activity [16] was 100%, the residual activity [17] was 100% and the residual activity [18] was 71%. The inhibition [19] was 7.47%, the residual activity [20] was 100% and the residual activity [21] was 96%. For the same compound, the inhibition [22] was -8.85%, the residual activity [23] was 74% and the residual activity [24] was 100%. For the same compound, the residual activity [25] was 100%, the residual activity [26] was 100% and the inhibition [27] was 4.3%. The residual activity [28] was 100%, the residual activity [29] was 83% and the residual activity [30] was 100%. For the same compound, the residual activity [31] was 83%, the residual activity [32] was 100% and the residual activity [33] was 85%. It also gave a residual activity [34] of 95%, a residual activity [35] of 96% and a residual activity [36] of 100%. The residual activity [37] was 100%, the residual activity [38] was 100% and the residual activity [39] was 81%. It also gave a residual activity [40] of 82%, a residual activity [41] of 100% and a residual activity [42] of 71%. For the same compound, the residual activity [43] was 92%, the residual activity [44] was 90% and the residual activity [45] was 74%.

Reference: ChEMBL document CHEMBL4507264, “Data for DCP probe BAY-7598” (2021)
